Literature values, collected in patent publication US20020128313A1, “Method for improved pregnancy management and related composition” (priority 2000, published 2002).

Test system: sows
[1] = 5 mg in extended boar sperm (Gil et al., 1998)

Compound: CCCCC[C@H](O)/C=C/[C@@H]1[C@@H](C/C=C\CCCC(=O)O)[C@@H](O)C[C@H]1O [PGF2α, Prostaglandin F2α]
- Likelihood of a sow to become pregnant [1]: increased the likelihood of a sow to become pregnant
- Number of piglets born alive [1]: increased number of piglets born alive
- Effect on seasonal infertility in sows (Pena et al., 1998): helped alleviate the effect of seasonal infertility
